Two compounds from patent US6683072B1, “Compositions and methods for treatment of irritable bowel syndrome and nonulcer dyspepsia” (Vela Pharmaceuticals, Inc., priority 2003, dated 2004) can be followed below.

A word on the inhibition: it is the percentage by which the read-out fell short of the control. Read a low inhibition as a weak effect.

This assay has as its system colonic propulsive motility in mice. Put plainly: Glass bead test of colonic propulsive motility in mice. The following applies: for Expulsion Time (min.) Mean ± SEM: 3 mm glass bead inserted 30 min after dosing, female Swiss Webster mice.

On to `CN(C)C(=O)C(CCN1CCC(O)(c2ccc(Cl)cc2)CC1)(c1ccccc1)c1ccccc1` [loperamide], for which the “Expulsion Time (min.) Mean ± SEM” value (10 mg/kg PO) came to 26.0 ± 2.6 min. Under “Mus musculus, po”, this compound yielded an inhibition at 10 mg/kg of 81%.
As to `CN1c2ccccc2C(NCCCCCCC(=O)O)c2ccc(Cl)cc2S1(=O)=O` (stereo not shown) [tianeptine, 7-[(3-chloro-6,11-dihydro-6-methyl-dibenzo[c,f][1,2]thiazepin-11-yl)amino] heptanoic acid S,S-dioxide], the “Expulsion Time (min.) Mean ± SEM” value (10 mg/kg PO) is 16.6 ± 3.6 min. The “Expulsion Time (min.) Mean ± SEM” value (30 mg/kg PO) came out at 25.7 ± 2.3 min. Moreover, the “effect compared with 10 mg/kg dose of loperamide” value (30 mg/kg tianeptine PO) is listed as “equivalent in effect to a 10 mg/kg dose of loperamide”. The “Expulsion Time (min.) Mean ± SEM” value (60 mg/kg PO) amounted to 29.8 ± 0.2 min. The “effect on colonic propulsion (in words)” value (10, 30 and 60 mg/kg PO) is on record as “dose-related inhibition of colonic propulsion”. For the setting “Mus musculus, po”, this compound returned an inhibition at 10 mg/kg of 38%, an inhibition at 30 mg/kg of 80% and an inhibition at 60 mg/kg of 98%.
